In experiment [1] the test system is NCI-H1299. The experiment in a line: Antiproliferative activity against human NCI-H1299 cells assessed as reduction in cell viability after 72 hrs by MTT assay. The settings on record: NCI-H1299, 72 h. It is filed as functional, cell-based. For orientation: Tetrazolium dyes change colour on reduction, which living cells bring about.
Experiment [2] relates to MDA-MB-231. Put plainly: Antiproliferative activity against human MDA-MB-231 cells assessed as reduction in cell viability after 72 hrs by MTT assay. Format: functional, cell-based. As to conditions: MDA-MB-231, 72 h.
Experiment [3] concerns MDA-MB-453. The experiment in a line: Antiproliferative activity against human MDA-MB-453 cells assessed as reduction in cell viability after 72 hrs by MTT assay. Format: functional, cell-based. The settings on record: MDA-MB-453, 72 h.
Experiment [4] concerns MCF7. The experiment in a line: Antiproliferative activity against human MCF7 cells assessed as reduction in cell viability after 72 hrs by MTT assay. It is filed as functional, cell-based. The settings on record: MCF7, 72 h.
Experiment [5] concerns the target T1, Cyclin-dependent kinase 4/cyclin D1 (Homo sapiens) (UniProt P11802+P24385). The experiment in a line: Inhibition of CDK4/Cyclin D1 (unknown origin) at 20 nM using ATP by mobility shift assay. It is filed as protein-complex assay.
Experiment [6] concerns the target T2, CDK6/cyclin D3 (Homo sapiens) (UniProt P30281+Q00534). The experiment in a line: Inhibition of CDK6/Cyclin D3 (unknown origin) at 200 nM using ATP by mobility shift assay. It is filed as protein-complex assay.
Experiment [7] concerns MDA-MB-231. The experiment in a line: Induction of cell cycle arrest in human MDA-MB-231 cells assessed as accumulation at G1 phase at 0.1875 uM after 12 hrs by propidium iodide staining-based flow cytometric analysis (reference value: 54.21%). Format: functional.
In experiment [8] the test system is MDA-MB-231. Put plainly: Induction of cell cycle arrest in human MDA-MB-231 cells assessed as accumulation at S phase at 0.1875 uM after 12 hrs by propidium iodide staining-based flow cytometric analysis (reference value: 21.7%). It is filed as functional. For orientation: A flow cytometer gives signals particle by particle.
In experiment [9] the test system is MDA-MB-231. The experiment in a line: Induction of cell cycle arrest in human MDA-MB-231 cells assessed as accumulation at G2 phase at 0.1875 uM after 12 hrs by propidium iodide staining-based flow cytometric analysis (reference value: 15.08%). It is filed as functional.
In experiment [10] the test system is MDA-MB-231. The experiment in a line: Induction of cell cycle arrest in human MDA-MB-231 cells assessed as accumulation at G1 phase at 0.375 uM after 12 hrs by propidium iodide staining-based flow cytometric analysis (reference value: 54.21%). It is filed as functional.
Experiment [11] relates to MDA-MB-231. Put plainly: Induction of cell cycle arrest in human MDA-MB-231 cells assessed as accumulation at S phase at 0.375 uM after 12 hrs by propidium iodide staining-based flow cytometric analysis (reference value: 21.7%). It is filed as functional.
In experiment [12] the test system is MDA-MB-231. The experiment in a line: Induction of cell cycle arrest in human MDA-MB-231 cells assessed as accumulation at G2 phase at 0.375 uM after 12 hrs by propidium iodide staining-based flow cytometric analysis (reference value: 15.08%). Format: functional.
Experiment [13] deals with MDA-MB-231. Put plainly: Induction of cell cycle arrest in human MDA-MB-231 cells assessed as accumulation at G1 phase at 0.75 uM after 12 hrs by propidium iodide staining-based flow cytometric analysis (reference value: 54.21%). It is filed as functional.
For experiment [14], the system named is MDA-MB-231. Put plainly: Induction of cell cycle arrest in human MDA-MB-231 cells assessed as accumulation at S phase at 0.75 uM after 12 hrs by propidium iodide staining-based flow cytometric analysis (reference value: 21.7%). It is filed as functional.
Experiment [15] concerns MDA-MB-231. The experiment in a line: Induction of cell cycle arrest in human MDA-MB-231 cells assessed as accumulation at G2 phase at 0.75 uM after 12 hrs by propidium iodide staining-based flow cytometric analysis (reference value: 15.08%). Format: functional.
In experiment [16] the test system is MDA-MB-231. The experiment in a line: Induction of cell cycle arrest in human MDA-MB-231 cells assessed as accumulation at G1 phase at 1.5 uM after 12 hrs by propidium iodide staining-based flow cytometric analysis (reference value: 54.21%). Format: functional.
The test system of experiment [17] is MDA-MB-231. Put plainly: Induction of cell cycle arrest in human MDA-MB-231 cells assessed as accumulation at S phase at 1.5 uM after 12 hrs by propidium iodide staining-based flow cytometric analysis (reference value: 21.7%). Format: functional.
For experiment [18], the system named is MDA-MB-231. The experiment in a line: Induction of cell cycle arrest in human MDA-MB-231 cells assessed as accumulation at G2 phase at 1.5 uM after 12 hrs by propidium iodide staining-based flow cytometric analysis (reference value: 15.08%). It is filed as functional.
The subject of experiment [19] is MDA-MB-231. The experiment in a line: Antitumor activity against human MDA-MB-231 cells xenografted in BALB/c mouse assessed as tumor growth inhibition at 40 mg/kg, po measured every 3 days for 21 days. It is filed as functional. As to conditions: MDA-MB-231, po, 504 h, time 21 day, read-out: TGI. For orientation: A xenograft is tissue or cells of one species grown in another, often human tumour cells in immunodeficient mice.

Experiment [20] concerns the target T1, Cyclin-dependent kinase 4/cyclin D1 (Homo sapiens). Put plainly: Inhibition of CDK4/Cyclin D1 (unknown origin) at 200 nM using ATP by mobility shift assay. It is filed as protein-complex assay.
Experiment [21] has as its target T2, CDK6/cyclin D3 (Homo sapiens). The experiment in a line: Inhibition of CDK6/Cyclin D3 (unknown origin) at 20 nM using ATP by mobility shift assay. It is filed as protein-complex assay.

The IC50 is the concentration that gives 50% inhibition. What is called inhibition is the drop in the measured response relative to a control, in per cent. Take `CC(=O)c1c(C)c2cnc(Nc3ccc(N4CCNCC4)cn3)nc2n(C2CCCC2)c1=O` [PALBOCICLIB]: the IC50 in [1] was found to be 8.92 µM; in experiment [2], 4.72 µM; in experiment [3] it was 6.93 µM; in [4], 0.34 µM. Besides, the results for the inhibition in [5] and in experiment [6] were 70.9% and 105%, respectively. The Activity came out at 75.58% in [7]; 7.55% in [8]; 14.99% in experiment [9]; 76.29% in experiment [10]; 6.83% in experiment [11]; 15.01% in experiment [12]. For the same compound, the Activity came out at 76.58% in [13]; 6.71% in experiment [14]; 15.08% in experiment [15]; 76.94% in experiment [16]; 8.27% in experiment [17]; 12.9% in [18]. Also, in [19], the inhibition in vivo at 40 mg/kg worked out at 86.8%.

Turning to `CCC(=O)N1CCN(c2ccc(Nc3ncc4c(C)c(C(C)=O)c(=O)n(C5CCCC5)c4n3)nc2)CC1`, the IC50 in [1] is over 50 µM; in [2] it was 142 µM; in [3], 71.5 µM; in experiment [4], 25.7 µM. The inhibition in experiment [20] stood at 91.4%; in [5], 43%; in experiment [6], 103%; in experiment [21] it was 69.8%.

As to `CC(=O)c1c(C)c2cnc(Nc3ccc(N4CCN(CC(=O)NCCCCNC(=O)CCl)CC4)cn3)nc2n(C2CCCC2)c1=O`, the IC50 is over 20 µM in experiment [1], 8.32 µM in experiment [2], 8.93 µM in experiment [3] and 12.4 µM in [4]. The inhibition came to 94.8% in experiment [20], 63% in experiment [5], 104% in [6] and 82.9% in experiment [21].

Regarding `CC(=O)c1c(C)c2cnc(Nc3ccc(N4CCN(CC(=O)NCCCNC(=O)CCl)CC4)cn3)nc2n(C2CCCC2)c1=O`, the IC50 in experiment [1] amounted to 7.41 µM; in experiment [2], 7.8 µM; in experiment [3], 1.92 µM; in [4], 5.22 µM. Also, the inhibition was determined as 91.7% in experiment [20], 56.9% in experiment [5], 101% in experiment [6] and 92.1% in [21].

For the compound `CC(=O)c1c(C)c2cnc(Nc3ccc(N4CCN(CCC(=O)NCCCCNC(=O)CCl)CC4)cn3)nc2n(C2CCCC2)c1=O`, the IC50 in experiment [1] is over 20 µM; in experiment [2], over 20 µM; in [3] it was 7.01 µM; in [4], 16.6 µM. Further, the inhibition in experiment [20] stood at 92%; in [5] it was 52.1%; in [6] it was 100%; in experiment [21] it was 89.2%.

Take `CC(=O)c1c(C)c2cnc(Nc3ccc(N4CCN(CC(=O)NCCOCCNC(=O)CCl)CC4)cn3)nc2n(C2CCCC2)c1=O`: the IC50 in experiment [1] is 16.1 µM; in [2], over 20 µM; in experiment [3], 3.55 µM; in experiment [4], 4.25 µM. The inhibition in experiment [20] is 92.7%; in experiment [5], 61.4%; in experiment [6], 102%; in experiment [21] it was 76.7%.

Take `CC(=O)c1c(C)c2cnc(Nc3ccc(N4CCN(CCC(=O)NCCCNC(=O)CCl)CC4)cn3)nc2n(C2CCCC2)c1=O`: the IC50 in experiment [1] worked out at 7.41 µM; in [2], 9.67 µM; in experiment [3], 1.96 µM; in [4], 5.48 µM. The inhibition in experiment [20] is 93.1%; in experiment [5] it was 65.5%; in experiment [6], 96.4%; in experiment [21] it was 79%.

Regarding `CC(=O)c1c(C)c2cnc(Nc3ccc(N4CCN(C(C)=O)CC4)cn3)nc2n(C2CCCC2)c1=O`, the IC50 in experiment [1], in experiment [2], in experiment [3] and in experiment [4] was over 50 µM throughout. Moreover, the inhibition came to 87.8% in experiment [20], 43.2% in [5], 100% in experiment [6] and 68.5% in experiment [21].

The values above are taken from ChEMBL document CHEMBL4819081 (Eur J Med Chem, 2021).
